This passage reports IC50 results from ChEMBL document CHEMBL1961794, “Regulation of circadian behaviour and metabolism by synthetic REV-ERB agonists” (Nature, 2012).

This assay has as its target T1, Nuclear receptor subfamily 1 group D member 1 (Homo sapiens, UniProt P20393).
T1 sequence (P20393 whole entry): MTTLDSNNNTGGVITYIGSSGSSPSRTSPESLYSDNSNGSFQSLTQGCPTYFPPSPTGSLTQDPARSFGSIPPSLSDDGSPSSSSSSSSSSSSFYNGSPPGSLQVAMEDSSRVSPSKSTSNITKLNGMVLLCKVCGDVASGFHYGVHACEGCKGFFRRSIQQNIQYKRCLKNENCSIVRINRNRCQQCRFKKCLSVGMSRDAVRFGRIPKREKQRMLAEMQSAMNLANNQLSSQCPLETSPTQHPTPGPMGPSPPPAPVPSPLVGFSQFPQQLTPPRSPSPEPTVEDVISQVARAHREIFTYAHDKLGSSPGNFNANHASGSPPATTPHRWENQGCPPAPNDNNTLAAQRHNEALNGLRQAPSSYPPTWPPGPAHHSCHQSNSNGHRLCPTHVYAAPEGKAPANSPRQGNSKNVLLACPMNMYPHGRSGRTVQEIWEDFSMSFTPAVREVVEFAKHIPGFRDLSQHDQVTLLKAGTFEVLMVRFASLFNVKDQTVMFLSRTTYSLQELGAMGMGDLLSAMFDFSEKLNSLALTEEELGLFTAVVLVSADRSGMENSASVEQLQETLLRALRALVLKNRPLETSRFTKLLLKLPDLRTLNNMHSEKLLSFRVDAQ
Briefly: Increased REV-ERB-alpha LBD dependent repressor activity in HEK293 cell reporter assay. In kind it is cell-based. To be noted: hek293.

As for `CC(C)(C)OC(=O)CN(Cc1ccc(Cl)cc1)Cc1ccc([N+](=O)[O-])s1` [GSK-4112], the IC50 result is recorded as “Not Active”.
